The source made the active and inactive calls. The rule behind the calls is not given here.
Tests used:
Mu-type opioid receptor [1] = molecular target: T1, Mu-type opioid receptor (Homo sapiens, UniProt P35372); test: Agonist activity at human MOR expressed in CHO-K1 cells co-expressing G-alpha15 by calcium mobilization assay; assay type: functional, cell-based
[2] = molecular target: T2, Kappa-type opioid receptor (Homo sapiens, UniProt P41145); test: Agonist activity at human KOR expressed in CHO-K1 cells co-expressing G-alpha15 by calcium mobilization assay; assay type: functional, cell-based
T2 sequence (P41145 whole entry): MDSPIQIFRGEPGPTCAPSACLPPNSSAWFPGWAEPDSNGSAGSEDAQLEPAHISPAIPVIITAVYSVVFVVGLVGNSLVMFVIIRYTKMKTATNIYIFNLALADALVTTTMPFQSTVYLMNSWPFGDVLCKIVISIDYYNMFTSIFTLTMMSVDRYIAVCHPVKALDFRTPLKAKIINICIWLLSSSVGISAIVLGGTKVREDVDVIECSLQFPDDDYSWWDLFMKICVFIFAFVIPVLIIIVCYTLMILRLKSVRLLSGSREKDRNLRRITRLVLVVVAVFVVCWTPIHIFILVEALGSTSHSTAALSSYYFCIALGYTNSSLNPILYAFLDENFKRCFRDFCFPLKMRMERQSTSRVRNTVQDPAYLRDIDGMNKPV

[3] = molecular target: T3, Delta-type opioid receptor (Homo sapiens, UniProt P41143); test: Agonist activity at human DOR expressed in CHO-K1 cells co-expressing G-alpha15 by calcium mobilization assay; assay type: functional, cell-based
T3 sequence (P41143 whole entry): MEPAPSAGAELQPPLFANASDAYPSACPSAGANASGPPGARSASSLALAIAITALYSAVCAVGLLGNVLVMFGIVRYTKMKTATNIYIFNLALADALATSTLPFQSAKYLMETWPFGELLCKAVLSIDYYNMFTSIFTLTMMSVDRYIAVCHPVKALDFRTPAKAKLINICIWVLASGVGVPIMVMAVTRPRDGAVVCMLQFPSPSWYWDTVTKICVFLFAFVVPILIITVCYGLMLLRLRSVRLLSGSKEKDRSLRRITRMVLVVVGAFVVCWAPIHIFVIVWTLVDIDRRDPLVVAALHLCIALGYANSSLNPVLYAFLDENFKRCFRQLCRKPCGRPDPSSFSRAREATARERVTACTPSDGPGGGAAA

Mus musculus [4] = test: Antinociceptive activity in Kunming mouse model assessed as latency of tail withdrawal at 1416 nmol/kg, sc measured for 10 mins by tail-flick test relative to control; assay type: functional
Mus musculus [5] = test: Antinociceptive activity in Kunming mouse model assessed as latency of tail withdrawal at 1416 nmol/kg, sc measured for 30 mins by tail-flick test relative to control; assay type: functional; conditions: 0.5 h
Mus musculus [6] = test: Antinociceptive activity in Kunming mouse model assessed as latency of tail withdrawal at 1416 nmol/kg, sc measured for 60 mins by tail-flick test relative to control; assay type: functional; conditions: 1 h
Mus musculus [7] = test: Antinociceptive activity in Kunming mouse model assessed as latency of tail withdrawal at 1416 nmol/kg, sc measured for 120 mins by tail-flick test relative to control; assay type: functional; conditions: 2 h
[8] = molecular target: T2, Kappa-type opioid receptor; test: Agonist activity at human KOR expressed in CHO-K1 cells co-expressing G-alpha15 upto 100 uM by calcium mobilization assay; assay type: functional, cell-based
Mu-type opioid receptor [9] = molecular target: T1, Mu-type opioid receptor; test: Agonist activity at human MOR expressed in CHO-K1 cells co-expressing G-alpha15 by calcium mobilization assay relative to control; assay type: functional, cell-based; conditions: filed as agonist
[10] = molecular target: T3, Delta-type opioid receptor; test: Agonist activity at human DOR expressed in CHO-K1 cells co-expressing G-alpha15 by calcium mobilization assay relative to control; assay type: functional, cell-based; conditions: filed as agonist
[11] = molecular target: T2, Kappa-type opioid receptor; test: Agonist activity at human KOR expressed in CHO-K1 cells co-expressing G-alpha15 by calcium mobilization assay relative to control; assay type: functional, cell-based
[12] = Stability in mouse plasma assessed as half life at 0.01 mol/L measured for 72 hrs by RP-HPLC analysis; assay type: ADME, cell-free
Mus musculus [13] = test: Antinociceptive activity in Kunming mouse model assessed as latency of tail withdrawal at 138.8 nmol/kg, sc measured for 10 mins by tail-flick test relative to control; assay type: functional
Mus musculus [14] = test: Antinociceptive activity in Kunming mouse model assessed as latency of tail withdrawal at 138.8 nmol/kg, sc measured for 30 mins by tail-flick test relative to control; assay type: functional; conditions: 0.5 h
Mus musculus [15] = test: Antinociceptive activity in Kunming mouse model assessed as latency of tail withdrawal at 138.8 nmol/kg, sc measured for 60 mins by tail-flick test relative to control; assay type: functional; conditions: 1 h
Mus musculus [16] = test: Antinociceptive activity in Kunming mouse model assessed as latency of tail withdrawal at 138.8 nmol/kg, sc measured for 120 mins by tail-flick test relative to control; assay type: functional; conditions: 2 h

T1 sequence (P35372 whole entry): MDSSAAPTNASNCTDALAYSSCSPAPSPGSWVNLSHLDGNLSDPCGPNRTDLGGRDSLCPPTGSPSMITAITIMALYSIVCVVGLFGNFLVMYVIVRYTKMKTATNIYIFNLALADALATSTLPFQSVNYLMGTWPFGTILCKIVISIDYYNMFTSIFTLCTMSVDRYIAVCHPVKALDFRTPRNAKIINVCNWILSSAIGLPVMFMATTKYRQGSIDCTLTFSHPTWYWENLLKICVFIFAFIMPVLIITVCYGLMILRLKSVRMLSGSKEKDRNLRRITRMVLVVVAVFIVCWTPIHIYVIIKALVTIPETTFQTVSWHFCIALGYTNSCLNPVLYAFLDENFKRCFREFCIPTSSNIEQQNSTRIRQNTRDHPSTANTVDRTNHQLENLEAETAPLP

## Cc1ccc(C[C@@H]2NC(=O)CNC(=O)[C@H](NC(=O)[C@@H](N)Cc3ccc(O)cc3)CCCCNC(=O)C[C@@H](C(=O)N3CCC[C@@H]3C(N)=O)NC2=O)cc1 [listing 1 of 2 here]
Mu-type opioid receptor [1]; cho-k1
  EC50: 0.0291 µM
[2]; cho-k1
  EC50: 2.43 µM
[3]; cho-k1
  EC50: 0.0222 µM

## NC(=O)[C@H]1CCCN1C(=O)[C@@H]1CC(=O)NCCCC[C@@H](NC(=O)[C@@H](N)Cc2ccc(O)cc2)C(=O)NCC(=O)N(Cc2ccccc2)CC(=O)N1 [listing 1 of 2 here]
Mus musculus [4]
  MPE: 46.8%
Mus musculus [5]
  MPE: 91.4%
Mus musculus [6]
  MPE: 76.3%
Mus musculus [7]
  MPE: 7.7%

## NC(=O)[C@@H]1CCCN1C(=O)[C@H]1CC(=O)NCCCC[C@@H](NC(=O)[C@@H](N)Cc2ccc(O)cc2)C(=O)NCC(=O)N(Cc2ccccc2)CC(=O)N1
[8]
  Activity: inactive
Mu-type opioid receptor [9]
  Emax: 113%
[10]
  Emax: 88.9%

## Cc1cc(O)cc(C)c1C[C@H](N)C(=O)N[C@@H]1CCCCNC(=O)C[C@@H](C(=O)N2CCC[C@@H]2C(N)=O)NC(=O)[C@H](Cc2ccccc2)NC(=O)CNC1=O
Mu-type opioid receptor [1]; cho-k1
  EC50: 0.0073 µM
[2]; cho-k1
  EC50: 3.55 µM
[3]; cho-k1
  EC50: 0.0012 µM

## NC(=O)CNC(=O)[C@H]1CC(=O)NCCCC[C@@H](NC(=O)[C@@H](N)Cc2ccc(O)cc2)C(=O)NCC(=O)N[C@@H](Cc2ccccc2)C(=O)N1
Mu-type opioid receptor [9]
  Emax: 91.1%
[11]; filed as agonist
  Emax: 48.4%
[10]
  Emax: 104%

## NC(=O)[C@@H]1CC(=O)NCCCC[C@@H](NC(=O)[C@@H](N)Cc2ccc(O)cc2)C(=O)NCC(=O)N[C@@H](Cc2ccccc2)C(=O)N1
Mu-type opioid receptor [1]; cho-k1
  EC50: 0.0014 µM
[2]; cho-k1
  EC50: 1.29 µM
[3]; cho-k1
  EC50: 0.0125 µM

## CC1(C)NC(=O)[C@H](NC(=O)[C@@H](N)Cc2ccc(O)cc2)CCCCNC(=O)C[C@@H](C(=O)N2CCC[C@@H]2C(N)=O)NC(=O)[C@H](Cc2ccccc2)NC1=O
Mu-type opioid receptor [1]; cho-k1
  EC50: 0.0053 µM
[2]; cho-k1
  EC50: 7.25 µM
[3]; cho-k1
  EC50: 0.0491 µM
[12]
  half-life at 0.01 mol/L: > 72 h

## NC(=O)[C@H]1CCCN1C(=O)[C@@H]1CC(=O)NCCCC[C@@H](NC(=O)[C@@H](N)Cc2ccc(O)cc2)C(=O)NCC(=O)N[C@@H](Cc2ccccc2)C(=O)N1 [listing 1 of 2 here]
Mu-type opioid receptor [1]
  EC50: 0.0311 µM
[2]
  EC50: 2.83 µM
[3]
  EC50: 0.0021 µM
[12]
  half-life at 0.01 mol/L: 41.9 h

## NC(=O)[C@@H]1CCCN1C(=O)[C@H]1CC(=O)NCCCC[C@@H](NC(=O)[C@@H](N)Cc2ccc(O)cc2)C(=O)NCC(=O)N[C@H](Cc2ccccc2)C(=O)N1
Mu-type opioid receptor [1]
  EC50: 0.0416 µM
[8]
  Activity: inactive
Mu-type opioid receptor [9]
  Emax: 104%
[3]
  EC50: 0.965 µM
[10]
  Emax: 72.8%
Mus musculus [4]
  MPE: 61.8%
Mus musculus [5]
  MPE: 86.6%
Mus musculus [6]
  MPE: 55.5%
Mus musculus [7]
  MPE: 28.3%

## NC(=O)[C@H]1CCCN1C(=O)[C@@H]1CC(=O)NCCCC[C@@H](NC(=O)[C@@H](N)Cc2ccc(O)cc2)C(=O)NCC(=O)N[C@@H](Cc2ccccc2)C(=O)N1 [listing 2 of 2 here]
Mus musculus [4]
  MPE: 65.5%
Mus musculus [5]
  MPE: 91.2%
Mus musculus [6]
  MPE: 63.7%
Mus musculus [7]
  MPE: 33.6%

## NC(=O)[C@H]1CCCN1C(=O)[C@@H]1CC(=O)NCCCC[C@@H](NC(=O)[C@@H](N)Cc2ccc(O)cc2)C(=O)NCCC(=O)N[C@@H](Cc2ccccc2)C(=O)N1 [listing 1 of 2 here]
Mus musculus [13]
  MPE: 45.6%
Mus musculus [14]
  MPE: 92.6%
Mus musculus [15]
  MPE: 71%
Mus musculus [16]
  MPE: 40.6%

## NC(=O)[C@H]1CCCN1C(=O)[C@@H]1CC(=O)NCCCC[C@@H](NC(=O)[C@@H](N)Cc2ccc(O)cc2)C(=O)NCC(=O)N[C@@H](CCc2ccccc2)C(=O)N1
Mu-type opioid receptor [1]; cho-k1
  EC50: 0.184 µM
[3]; cho-k1
  EC50: 0.0644 µM

## NC(=O)[C@H]1CCCN1C(=O)[C@@H]1CC(=O)NCCCC[C@@H](NC(=O)[C@@H](N)Cc2ccc(O)cc2)C(=O)NCC(=O)N[C@@H](Cc2ccc3ccccc3c2)C(=O)N1
Mu-type opioid receptor [1]; cho-k1
  EC50: 0.0018 µM
[3]; cho-k1
  EC50: 0.0022 µM
[12]
  half-life at 0.01 mol/L: 20.3 h

## NC(=O)[C@H]1CCCN1C(=O)[C@@H]1CC(=O)NCCCC[C@@H](NC(=O)[C@@H](N)Cc2ccc(O)cc2)C(=O)NCC(=O)N(Cc2ccccc2)CC(=O)N1 [listing 2 of 2 here]
Mu-type opioid receptor [1]; cho-k1
  EC50: 0.0361 µM
[3]; cho-k1
  EC50: 0.837 µM

## NC(=O)[C@@H]1CCCN1C(=O)[C@H]1CC(=O)NCCCC[C@@H](NC(=O)[C@@H](N)Cc2ccc(O)cc2)C(=O)NCCC(=O)N[C@@H](Cc2ccccc2)C(=O)N1
Mu-type opioid receptor [9]
  Emax: 95.9%

## Cc1cc(O)cc(C)c1C[C@H](N)C(=O)N[C@@H]1CCCCNC(=O)C[C@H](C(=O)N2CCC[C@H]2C(N)=O)NC(=O)[C@H](Cc2ccccc2)NC(=O)CNC1=O
Mu-type opioid receptor [9]
  Emax: 101%
[11]
  Emax: 39.2%
[10]
  Emax: 116%

## NC(=O)[C@@H]1CCCN1C(=O)[C@H]1CC(=O)NCCCC[C@@H](NC(=O)[C@@H](N)Cc2ccc(O)cc2)C(=O)NCC(=O)N[C@@H](CC2CCCCC2)C(=O)N1
Mu-type opioid receptor [9]
  Emax: 105%
[10]
  Emax: 54.4%

## CN1CC(=O)N[C@@H](Cc2ccccc2)C(=O)N[C@H](C(=O)N2CCC[C@@H]2C(N)=O)CC(=O)NCCCC[C@@H](NC(=O)[C@@H](N)Cc2ccc(O)cc2)C1=O
Mu-type opioid receptor [1]; cho-k1
  EC50: 1.15 µM
[3]; cho-k1
  EC50: 3.03 µM

## NC(=O)[C@H]1CCCN1C(=O)[C@@H]1CC(=O)NCCCC[C@@H](NC(=O)[C@@H](N)Cc2ccc(O)cc2)C(=O)NCC(=O)N[C@@H](CC2CCCCC2)C(=O)N1
Mu-type opioid receptor [1]; cho-k1
  EC50: 0.0432 µM
[3]; cho-k1
  EC50: 0.804 µM

## Cc1ccc(C[C@@H]2NC(=O)CNC(=O)[C@H](NC(=O)[C@@H](N)Cc3ccc(O)cc3)CCCCNC(=O)C[C@H](C(=O)N3CCC[C@H]3C(N)=O)NC2=O)cc1
Mu-type opioid receptor [9]
  Emax: 109%
[11]; filed as agonist
  Emax: 66.7%
[10]
  Emax: 115%

## NC(=O)CNC(=O)[C@@H]1CC(=O)NCCCC[C@@H](NC(=O)[C@@H](N)Cc2ccc(O)cc2)C(=O)NCC(=O)N[C@@H](Cc2ccccc2)C(=O)N1
Mu-type opioid receptor [1]; cho-k1
  EC50: 0.113 µM
[2]; cho-k1
  EC50: 9.2 µM
[3]; cho-k1
  EC50: 0.623 µM

## NC(=O)[C@H]1CC(=O)NCCCC[C@@H](NC(=O)[C@@H](N)Cc2ccc(O)cc2)C(=O)NCC(=O)N[C@@H](Cc2ccccc2)C(=O)N1
Mu-type opioid receptor [9]
  Emax: 103%
[11]; filed as agonist
  Emax: 85.5%
[10]
  Emax: 125%

## C[C@@H]1NC(=O)[C@H](NC(=O)[C@@H](N)Cc2ccc(O)cc2)CCCCNC(=O)C[C@H](C(=O)N2CCC[C@H]2C(N)=O)NC(=O)[C@H](Cc2ccccc2)NC1=O
Mu-type opioid receptor [1]; cho-k1
  EC50: 0.0082 µM
Mu-type opioid receptor [9]
  Emax: 93.7%
[2]; cho-k1
  EC50: 4.82 µM
[11]; filed as agonist
  Emax: 51.4%
[3]; cho-k1
  EC50: 0.052 µM
[10]
  Emax: 96.6%
Mus musculus [13]
  MPE: 70.9%
Mus musculus [14]
  MPE: 88.9%
Mus musculus [15]
  MPE: 70.1%
Mus musculus [16]
  MPE: 27.4%

## Cc1ccc(C[C@@H]2NC(=O)CNC(=O)[C@H](NC(=O)[C@@H](N)Cc3ccc(O)cc3)CCCCNC(=O)C[C@@H](C(=O)N3CCC[C@@H]3C(N)=O)NC2=O)cc1 [listing 2 of 2 here]
Mus musculus [13]
  MPE: 44.8%
Mus musculus [14]
  MPE: 95.6%
Mus musculus [15]
  MPE: 67.1%
Mus musculus [16]
  MPE: 39.2%

## NC(=O)[C@H]1CCCN1C(=O)[C@@H]1CC(=O)NCCCC[C@@H](NC(=O)[C@@H](N)Cc2ccc(O)cc2)C(=O)NCCC(=O)N[C@@H](Cc2ccccc2)C(=O)N1 [listing 2 of 2 here]
Mu-type opioid receptor [1]; cho-k1
  EC50: 0.974 µM

## CN1CC(=O)N[C@@H](Cc2ccccc2)C(=O)N[C@@H](C(=O)N2CCC[C@H]2C(N)=O)CC(=O)NCCCC[C@@H](NC(=O)[C@@H](N)Cc2ccc(O)cc2)C1=O
Mu-type opioid receptor [9]
  Emax: 118%
[10]
  Emax: 100%

## NC(=O)[C@@H]1CCCN1C(=O)[C@H]1CC(=O)NCCCC[C@@H](NC(=O)[C@@H](N)Cc2ccc(O)cc2)C(=O)NCC(=O)N[C@@H](CCc2ccccc2)C(=O)N1
[8]
  Activity: inactive
Mu-type opioid receptor [9]
  Emax: 99.8%
[10]
  Emax: 66.6%
